The values below come from patent US10072011B2, “Substituted bridged urea analogs as sirtuin modulators” (GlaxoSmithKline Intellectual Property (No.2) Limited, priority 2014, dated 2018).

The target of the assay is T1, SIRT1 (Homo sapiens, UniProt Q96EB6).
T1 sequence (Q96EB6 1-747): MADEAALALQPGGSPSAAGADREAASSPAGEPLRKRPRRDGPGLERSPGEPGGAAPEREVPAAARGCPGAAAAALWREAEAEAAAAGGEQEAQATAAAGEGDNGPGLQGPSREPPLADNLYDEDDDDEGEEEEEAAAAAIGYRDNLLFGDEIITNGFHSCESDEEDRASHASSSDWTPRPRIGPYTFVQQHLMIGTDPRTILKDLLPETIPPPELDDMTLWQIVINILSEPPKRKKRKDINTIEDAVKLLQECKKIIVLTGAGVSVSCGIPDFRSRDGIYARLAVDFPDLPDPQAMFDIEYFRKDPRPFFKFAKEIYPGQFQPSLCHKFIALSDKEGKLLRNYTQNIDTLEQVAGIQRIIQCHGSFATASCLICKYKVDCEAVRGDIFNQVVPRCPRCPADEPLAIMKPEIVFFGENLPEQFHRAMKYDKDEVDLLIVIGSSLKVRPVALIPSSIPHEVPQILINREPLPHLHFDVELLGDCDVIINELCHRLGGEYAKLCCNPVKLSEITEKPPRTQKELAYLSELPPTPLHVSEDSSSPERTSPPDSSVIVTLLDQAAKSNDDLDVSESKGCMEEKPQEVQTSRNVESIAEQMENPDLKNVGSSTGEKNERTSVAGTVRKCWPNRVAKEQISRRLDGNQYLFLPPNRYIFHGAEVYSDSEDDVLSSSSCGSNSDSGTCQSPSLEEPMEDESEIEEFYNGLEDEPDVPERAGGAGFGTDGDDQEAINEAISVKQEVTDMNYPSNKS
Kind of assay: Trp mass spectrometry assay of SIRT1 activation (Ac-R-H-K-K(Ac)-W-NH2 peptide). Type of assay: biochemical. Particulars: for Emax: 25 min, read-out: TRP MAX RESP (percent maximum fold activation). The method, boiled down:
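N-terminal His-tagged human SIRT1, expressed in BL21(DE3) and purified, was incubated 25 min with an acetylated Trp peptide and NAD plus test compound at varying concentrations, then quenched with formic acid. OAADPR or deacetylated peptide was quantified by mass spectrometry versus compound-free control; EC1.5 is the concentration giving 50% activity increase, with percent maximum activation.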

[1] abbreviates: Trp peptide 0.5 μM, 120 μM βNAD+, 10 nM SIRT1, 25 min at 25° C., relative to control (100%).
The mark [2] stands for this setting: Trp peptide 0.5 μM, 120 μM βNAD+, 10 nM SIRT1, 25 min at 25° C.

Where two headings read alike, the source gives them in different places. Where only a bound is given, the exact number is not on record here.

In the case of `C[C@@H](NC(=O)c1ccc2c(n1)N(C(=O)Nc1cc3nc[nH]c3cn1)[C@H]1CCN2C1)C(F)(F)F` [Example 192, (4S)—N5-(3H-imidazo[4,5-c]pyridin-6-yl)-N7-((R)-1,1,1-trifluoropropan-2-yl)-3,4-dihydro-1,4-methanopyrido[2,3-b][1,4]diazepine-5,7(2H)-dicarboxamide], the Emax under setting [1] was over 150%. Besides, the “TRP Activity (EC1.5, concentration of test compound that results in 150% activation of SIRT1)” value under setting [2] is on record as “A (EC1.5<1 μM)”.

As to `C[C@@H](NC(=O)c1ccc2c(n1)N(C(=O)Nc1ccc(OC[C@H](O)CO)nn1)[C@H]1CCN2C1)C(F)(F)F` [Example 193, (4S)—N5-(6-((R)-2,3-dihydroxypropoxy)pyridazin-3-yl)-N7-((R)-1,1,1-trifluoropropan-2-yl)-3,4-dihydro-1,4-methanopyrido[2,3-b][1,4]diazepine-5,7(2H)-dicarboxamide], under setting [1], the Emax is over 150%. Besides, under setting [2], the “TRP Activity (EC1.5, concentration of test compound that results in 150% activation of SIRT1)” value is “A (EC1.5<1 μM)”.

Consider `C[C@@H](NC(=O)c1ccc2c(n1)N(C(=O)Nc1cnc(OC[C@H](O)CO)cn1)[C@H]1CCN2C1)C(F)(F)F` [Example 194, (4S)—N5-(5-((R)-2,3-dihydroxypropoxy)pyrazin-2-yl)-N7-((R)-1,1,1-trifluoropropan-2-yl)-3,4-dihydro-1,4-methanopyrido[2,3-b][1,4]diazepine-5,7(2H)-dicarboxamide], for which the Emax under setting [1] was over 150%. The “TRP Activity (EC1.5, concentration of test compound that results in 150% activation of SIRT1)” value under setting [2] is recorded as “A (EC1.5<1 μM)”.

Turning to `O=C(NCc1nccs1)c1ccc2c(n1)N(C(=O)Nc1cc(OC[C@H](O)CO)ccn1)[C@H]1CCN2C1` [Example 195, (4S)—N5-(4-((R)-2,3-dihydroxypropoxy)pyridin-2-yl)-N7-(thiazol-2-ylmethyl)-3,4-dihydro-1,4-methanopyrido[2,3-b][1,4]diazepine-5,7(2H)-dicarboxamide], under setting [1], the Emax was over 150%. The “TRP Activity (EC1.5, concentration of test compound that results in 150% activation of SIRT1)” value under setting [2] is given as “B (EC1.5 1-25 μM)”.

Turning to `O=C(NCc1cscn1)c1ccc2c(n1)N(C(=O)Nc1cc(OC[C@H](O)CO)ccn1)[C@H]1CCN2C1` [Example 199, (4S)—N5-(4-((R)-2,3-dihydroxypropoxy)pyridin-2-yl)-N7-(thiazol-4-ylmethyl)-3,4-dihydro-1,4-methanopyrido[2,3-b][1,4]diazepine-5,7(2H)-dicarboxamide], under setting [1], the Emax was over 150%. For the same compound, the “TRP Activity (EC1.5, concentration of test compound that results in 150% activation of SIRT1)” value under setting [2] was “B (EC1.5 1-25 μM)”.

On to `CC(C)(CO)NC(=O)c1ccc2c(n1)N(C(=O)Nc1ccccn1)[C@H]1CCN2C1` [Example 200, (4S)—N7-(1-hydroxy-2-methylpropan-2-yl)-N5-(pyridin-2-yl)-3,4-dihydro-1,4-methanopyrido[2,3-b][1,4]diazepine-5,7(2H)-dicarboxamide], for which the Emax under setting [1] is over 150%. Also, the “TRP Activity (EC1.5, concentration of test compound that results in 150% activation of SIRT1)” value under setting [2] is on record as “B (EC1.5 1-25 μM)”.

As for `CN(C)NC(=O)c1ccc2c(n1)N(C(=O)Nc1ccccn1)[C@H]1CCN2C1` [Example 201, (4S)-7-(2,2-dimethylhydrazinecarbonyl)-N-(pyridin-2-yl)-3,4-dihydro-1,4-methanopyrido[2,3-b][1,4]diazepine-5(2H)-carboxamide], the Emax is over 150%. Under setting [2], the “TRP Activity (EC1.5, concentration of test compound that results in 150% activation of SIRT1)” value is listed as “B (EC1.5 1-25 μM)”.

Regarding `CC(C)(O)CNC(=O)c1ccc2c(n1)N(C(=O)Nc1ccccn1)[C@H]1CCN2C1` [Example 202, (4S)—N7-(2-hydroxy-2-methylpropyl)-N5-(pyridin-2-yl)-3,4-dihydro-1,4-methanopyrido[2,3-b][1, 4] diazepine-5,7(2H)-dicarboxamide], under setting [1], the Emax was over 150%. The “TRP Activity (EC1.5, concentration of test compound that results in 150% activation of SIRT1)” value under setting [2] is recorded as “B (EC1.5 1-25 μM)”.

As to `C[C@@H](O)CNC(=O)c1ccc2c(n1)N(C(=O)Nc1ccccn1)[C@H]1CCN2C1` [Example 203, (4S)—N7-((R)-2-hydroxypropyl)-N5-(pyridin-2-yl)-3,4-dihydro-1,4-methanopyrido[2,3-b][1,4]diazepine-5,7(2H)-dicarboxamide], the Emax under setting [1] is over 150%. Also, the “TRP Activity (EC1.5, concentration of test compound that results in 150% activation of SIRT1)” value under setting [2] is on record as “B (EC1.5 1-25 μM)”.

With `O=C(NC1CC1)c1ccc2c(n1)N(C(=O)Nc1ncccn1)[C@H]1CCN2C1` [Example 204, (4S)—N7-cyclopropyl-N5-(pyrimidin-2-yl)-3,4-dihydro-1,4-methanopyrido[2,3-b][1,4]diazepine-5,7(2H)-dicarboxamide], the Emax under setting [1] is over 150%. Moreover, the “TRP Activity (EC1.5, concentration of test compound that results in 150% activation of SIRT1)” value under setting [2] was “B (EC1.5 1-25 μM)”.

Regarding `Cc1nc(NC(=O)N2c3nc(C(=O)NC4CC4)ccc3N3CC[C@H]2C3)ccc1F` [Example 205, (4S)—N7-cyclopropyl-N5-(5-fluoro-6-methylpyridin-2-yl)-3,4-dihydro-1,4-methanopyrido[2,3-b][1,4]diazepine-5,7(2H)-dicarboxamide], the Emax under setting [1] was over 150%. For the same compound, the “TRP Activity (EC1.5, concentration of test compound that results in 150% activation of SIRT1)” value under setting [2] is “B (EC1.5 1-25 μM)”.

For the compound `O=C(NC1CCC1)c1ccc2c(n1)N(C(=O)Nc1cnccn1)[C@H]1CCN2C1` [Example 206, (4S)—N7-cyclobutyl-N5-(pyrazin-2-yl)-3,4-dihydro-1,4-methanopyrido[2,3-b][1,4]diazepine-5,7(2H)-dicarboxamide], under setting [1], the Emax was over 150%. For the same compound, the “TRP Activity (EC1.5, concentration of test compound that results in 150% activation of SIRT1)” value under setting [2] is listed as “B (EC1.5 1-25 μM)”.

With `C[C@H](NC(=O)c1ccc2c(n1)N(C(=O)Nc1ccccn1)[C@H]1CCN2C1)C(F)(F)F` [Example 207, (4S)—N5-(pyridin-2-yl)-N7-((S)-1,1,1-trifluoropropan-2-yl)-3,4-dihydro-1,4-methanopyrido[2,3-b][1,4]diazepine-5,7(2H)-dicarboxamide], under setting [1], the Emax is over 150%. Also, the “TRP Activity (EC1.5, concentration of test compound that results in 150% activation of SIRT1)” value under setting [2] was “B (EC1.5 1-25 μM)”.

For the compound `O=C(NC[C@@H]1CCCO1)c1ccc2c(n1)N(C(=O)Nc1ccccn1)[C@H]1CCN2C1` [Example 208, (4S)—N5-(pyridin-2-yl)-N7-(((S)-tetrahydrofuran-2-yl)methyl)-3,4-dihydro-1,4-methanopyrido[2,3-b][1,4]diazepine-5,7(2H)-dicarboxamide], under setting [1], the Emax is over 150%. Besides, the “TRP Activity (EC1.5, concentration of test compound that results in 150% activation of SIRT1)” value under setting [2] is reported as “B (EC1.5 1-25 μM)”.

Turning to `CC(C)(CCO)NC(=O)c1ccc2c(n1)N(C(=O)Nc1ccccn1)[C@H]1CCN2C1` [Example 209, (4S)—N7-(4-hydroxy-2-methylbutan-2-yl)-N5-(pyridin-2-yl)-3,4-dihydro-1,4-methanopyrido[2,3-b][1, 4] diazepine-5, 7(2H)-dicarboxamide], under setting [1], the Emax was over 150%. Besides, the “TRP Activity (EC1.5, concentration of test compound that results in 150% activation of SIRT1)” value under setting [2] was “B (EC1.5 1-25 μM)”.

On to `C[C@H](O)CNC(=O)c1ccc2c(n1)N(C(=O)Nc1ccccn1)[C@H]1CCN2C1` [Example 211, (4S)—N7-((S)-2-hydroxypropyl)-N5-(pyridin-2-yl)-3,4-dihydro-1,4-methanopyrido[2,3-b][1,4]diazepine-5,7(2H)-dicarboxamide], for which the Emax under setting [1] was over 150%. Also, under setting [2], the “TRP Activity (EC1.5, concentration of test compound that results in 150% activation of SIRT1)” value is listed as “B (EC1.5 1-25 μM)”.

`CNC(=O)c1ccc2c(n1)N(C(=O)Nc1ccccn1)[C@H]1CCN2C1` [Example 212, (4S)—N7-methyl-N5-(pyridin-2-yl)-3,4-dihydro-1,4-methanopyrido[2,3-b][1,4]diazepine-5,7(2H)-dicarboxamide]: under setting [1], the Emax is over 150%. For the same compound, the “TRP Activity (EC1.5, concentration of test compound that results in 150% activation of SIRT1)” value under setting [2] is given as “B (EC1.5 1-25 μM)”.

In the case of `O=C(O)c1ccc(NC(=O)N2c3nc(C(=O)NCC(F)(F)F)ccc3N3CC[C@H]2C3)nc1` [Example 213, 6-((4S)-7-((2,2,2-trifluoroethyl)carbamoyl)-2,3,4,5-tetrahydro-1,4-methanopyrido[2,3-b][1,4]diazepine-5-carboxamido)nicotinic acid], the Emax under setting [1] was over 150%. The “TRP Activity (EC1.5, concentration of test compound that results in 150% activation of SIRT1)” value under setting [2] was “B (EC1.5 1-25 μM)”.

As to `Cc1ccc(NC(=O)N2c3nc(C(=O)NC4CC4)ccc3N3CC[C@H]2C3)nc1` [Example 215, (4S)—N7-cyclopropyl-N5-(5-methylpyridin-2-yl)-3,4-dihydro-1,4-methanopyrido[2,3-b][1,4]diazepine-5,7(2H)-dicarboxamide], the Emax under setting [1] is over 150%. Further, the “TRP Activity (EC1.5, concentration of test compound that results in 150% activation of SIRT1)” value under setting [2] is reported as “B (EC1.5 1-25 μM)”.
